Source: PMC9971899, “Identification and structural analysis of a carbohydrate-binding module specific to alginate, a representative of a new family, CBM96” (The Journal of Biological Chemistry, 2022)
Several values for one entry are separate records, joined by “and”; a condition that tells them apart may be missing. Equal values may be shown once.

Experiments:
TM6-N4 [1] = test: Isothermal titration calorimetry of alginate and oligoalginate binding to TM6-N4; set-up: species or system Defluviitalea phaphyphila; details: ITC, 25 °C, pH 7.0; for TΔS: calculated from ΔG = ΔH-TΔS; for ΔG (binding free energy change): calculated from ΔG = −RTln Ka
Method: (§1) To characterize the binding of TM6-N4 to alginate, isothermal titration calorimetry (ITC) experiments were carried out at 25 °C and pH 7.0, with alginate and oligoalginate standards including G3, G4, G5, G6, G7, M3, M5, M6, and M7 as substrate and TM6-N4 as the enzyme. […] Nevertheless, G3 produced a profile of CBM–ligand interaction (Fig. 2A). It is thus likely that the binding sites of TM6-N4 required at least three uronic acid units to yield stable binding complexes. […] These discrepancies may reflect the fact that one alginate chain has accommodated several protein molecules and the fact of the thermodynamic instability of the long alginate chain.
(§2) Figure 2 Thermograms (upper panels) and binding isotherms with theoretical fits (lower panels) obtained for the binding. G3 (A), G4 (B), G5 (C), G6 (D), G7 (E), M3 (F), M5 (G), M6 (H), M7 (I), and alginate (J) to TM6-N4. The buffer used was 20 mM Tris–HCl buffer, pH 7.0. Protein concentration was 20 μM for TM6-N4.
(§3) The proteins were dialyzed extensively against buffer with 20 mM Tris–HCl (pH 7.0) without NaCl and adjusted concentration to 20 μM, and the oligosaccharide ligands (purity ≥95%; Qingdao BZ Oligo Biotech Co Ltd) or alginate ligands (viscosity >0.02 Pa·s, 1% alginate in H2O at 25 °C) were dissolved in the same buffer to minimize heats of dilution with a concentration of 200 μM. To avoid bubble formation, all the samples were degassed by centrifugation at 12,000 rpm/10 min. Calorimetric titration was performed with MicroCal PEAQ-ITC (Malvern Panalytical). During a titration experiment, the protein sample was stirred at a speed of 750 rpm and kept a constant temperature of 25 °C, and the titration needle was filled with 80 μl oligosaccharide or alginate ligand. Titrations were completed after 19 injections (each 3 μl) at an interval of 150 s. The data were analyzed by using the one-site binding model in the MicroCal PEAQ-ITC Analysis software. The fitted data yielded the dissociation constant (Kd), the number of binding sites on the protein (n), and the enthalpy of binding (ΔH). Other thermodynamic parameters can be calculated by using the standard thermodynamic equation ΔG = −RTln Ka = ΔH-TΔS. Titrations were carried out in triplicate for most ligands, and the errors are the SD of the mean of these replicates.

TM6-N4 [2] = target: T1, TM6-N4 (Defluviitalea phaphyphila, UniProt A0A4Y5UXE1); test: Isothermal titration calorimetry (MicroCal PEAQ-ITC) of 20 uM TM6-N4 with 200 uM oligoalginate in 20 mM Tris-HCl pH 7.0 without NaCl at 25 °C, one-site binding model, triplicate for most ligands.; details: SD, n = 3
T1 construct: gene Dp0100; TM6-N4 truncation of Dp0100 (187 amino acids, within TM6 segment 1020-1446, without CBM35), His tag, produced in E. coli BL21 (DE3); monomer, Ca2+ in crystal structure
Method: as §1, §2, §3

SMILES | ΔH (TM6-N4 [1]) | TΔS (TM6-N4 [1]) | ΔG (binding free energy change) (TM6-N4 [1]) | Kd (TM6-N4 [2])
O=C(O)[C@@H]1O[C@@H](O[C@H]2[C@H](O)[C@H](O)[C@H](O[C@H]3[C@H](O)[C@H](O)[C@H](O[C@H]4[C@H](O)[C@H](O)[C@H](O[C@H]5[C@H](O)[C@H](O)C(O)O[C@H]5C(=O)O)O[C@H]4C(=O)O)O[C@H]3C(=O)O)O[C@H]2C(=O)O)[C@@H](O)[C@@H](O)[C@@H]1O (some centres unmarked) [G5] | -12.3 ± 0.4 kcal/mol | -3.6 kcal/mol | -8.6 kcal/mol and -8.6 ± 0.1 kcal/mol | 
O=C(O)[C@@H]1O[C@@H](O[C@H]2[C@H](O)[C@H](O)[C@H](O[C@H]3[C@H](O)[C@H](O)[C@H](O[C@H]4[C@H](O)[C@H](O)[C@H](O[C@H]5[C@H](O)[C@H](O)C(O)O[C@H]5C(=O)O)O[C@H]4C(=O)O)O[C@H]3C(=O)O)O[C@H]2C(=O)O)[C@@H](O)[C@@H](O)[C@@H]1O (stereo partly drawn) [G5, alpha-L-guluronate pentasaccharide (pentaguluronate)] |  |  |  | 500 ± 100 nM
O=C(O)[C@@H]1O[C@@H](O[C@H]2[C@H](O)[C@H](O)[C@H](O[C@H]3[C@H](O)[C@H](O)[C@H](O[C@H]4[C@H](O)[C@H](O)[C@H](O[C@H]5[C@H](O)[C@H](O)[C@H](O[C@H]6[C@H](O)[C@H](O)[C@H](O[C@H]7[C@H](O)[C@H](O)C(O)O[C@H]7C(=O)O)O[C@H]6C(=O)O)O[C@H]5C(=O)O)O[C@H]4C(=O)O)O[C@H]3C(=O)O)O[C@H]2C(=O)O)[C@@H](O)[C@@H](O)[C@@H]1O (stereo partly drawn) [G7, alpha-L-guluronate heptasaccharide (heptaguluronate)] |  |  |  | 300 ± 70 nM
O=C(O)[C@@H]1O[C@@H](O[C@H]2[C@H](O)[C@H](O)[C@H](O[C@H]3[C@H](O)[C@H](O)C(O)O[C@H]3C(=O)O)O[C@H]2C(=O)O)[C@@H](O)[C@@H](O)[C@@H]1O (stereo partly drawn) [G3, alpha-L-guluronate trisaccharide (triguluronate)] |  |  |  | 3100 ± 100 nM
O=C(O)[C@@H]1O[C@@H](O[C@H]2[C@H](O)[C@H](O)[C@H](O[C@H]3[C@H](O)[C@H](O)[C@H](O[C@H]4[C@H](O)[C@H](O)[C@H](O[C@H]5[C@H](O)[C@H](O)[C@H](O[C@H]6[C@H](O)[C@H](O)C(O)O[C@H]6C(=O)O)O[C@H]5C(=O)O)O[C@H]4C(=O)O)O[C@H]3C(=O)O)O[C@H]2C(=O)O)[C@@H](O)[C@@H](O)[C@@H]1O (stereo partly drawn) [G6, alpha-L-guluronate hexasaccharide (hexaguluronate)] |  |  |  | 20 ± 20 nM
O=C(O)[C@@H]1O[C@@H](O[C@H]2[C@H](O)[C@H](O)[C@H](O[C@H]3[C@H](O)[C@H](O)[C@H](O[C@H]4[C@H](O)[C@H](O)[C@H](O[C@H]5[C@H](O)[C@H](O)[C@H](O[C@H]6[C@H](O)[C@H](O)C(O)O[C@H]6C(=O)O)O[C@H]5C(=O)O)O[C@H]4C(=O)O)O[C@H]3C(=O)O)O[C@H]2C(=O)O)[C@@H](O)[C@@H](O)[C@@H]1O (some centres unmarked) [G6] | -8.6 ± 0.4 kcal/mol | 1.9 kcal/mol | -10.5 kcal/mol and -10.5 ± 0.1 kcal/mol | 
O=C(O)[C@@H]1O[C@@H](O[C@H]2[C@H](O)[C@H](O)[C@H](O[C@H]3[C@H](O)[C@H](O)C(O)O[C@H]3C(=O)O)O[C@H]2C(=O)O)[C@@H](O)[C@@H](O)[C@@H]1O (some centres unmarked) [G3] | -15.1 ± 3.3 kcal/mol | -7.6 kcal/mol | -7.5 kcal/mol and -7.5 ± 0.1 kcal/mol | 
O=C(O)[C@@H]1O[C@@H](O[C@H]2[C@H](O)[C@H](O)[C@H](O[C@H]3[C@H](O)[C@H](O)[C@H](O[C@H]4[C@H](O)[C@H](O)C(O)O[C@H]4C(=O)O)O[C@H]3C(=O)O)O[C@H]2C(=O)O)[C@@H](O)[C@@H](O)[C@@H]1O (stereo partly drawn) [G4, alpha-L-guluronate tetrasaccharide (tetraguluronate)] |  |  |  | 600 ± 100 nM
O=C(O)[C@@H]1O[C@@H](O[C@H]2[C@H](O)[C@H](O)[C@H](O[C@H]3[C@H](O)[C@H](O)[C@H](O[C@H]4[C@H](O)[C@H](O)C(O)O[C@H]4C(=O)O)O[C@H]3C(=O)O)O[C@H]2C(=O)O)[C@@H](O)[C@@H](O)[C@@H]1O (some centres unmarked) [G4] | -7.3 ± 0.2 kcal/mol | 1.1 kcal/mol | -8.4 kcal/mol and -8.4 ± 0.1 kcal/mol | 
O=C(O)[C@@H]1O[C@@H](O[C@H]2[C@H](O)[C@H](O)[C@H](O[C@H]3[C@H](O)[C@H](O)[C@H](O[C@H]4[C@H](O)[C@H](O)[C@H](O[C@H]5[C@H](O)[C@H](O)[C@H](O[C@H]6[C@H](O)[C@H](O)[C@H](O[C@H]7[C@H](O)[C@H](O)C(O)O[C@H]7C(=O)O)O[C@H]6C(=O)O)O[C@H]5C(=O)O)O[C@H]4C(=O)O)O[C@H]3C(=O)O)O[C@H]2C(=O)O)[C@@H](O)[C@@H](O)[C@@H]1O (some centres unmarked) [G7] | -14.2 ± 0.4 kcal/mol | -5.4 kcal/mol | -8.9 kcal/mol and -8.9 ± 0.1 kcal/mol | 

More lines, now with the values ahead:

ΔH (TM6-N4 [1]) | TΔS (TM6-N4 [1]) | ΔG (binding free energy change) (TM6-N4 [1]) | Kd (TM6-N4 [2]) | SMILES
 |  |  | 200 ± 100 nM | O=C(O)[C@H]1O[C@@H](O[C@H]2[C@H](O)[C@H](O)[C@H](O[C@H]3[C@H](O)[C@H](O)[C@H](O[C@H]4[C@H](O)[C@H](O)[C@H](O[C@H]5[C@H](O)[C@H](O)[C@H](O[C@H]6[C@H](O)[C@H](O)[C@H](O[C@H]7[C@H](O)[C@H](O)C(O)O[C@@H]7C(=O)O)O[C@@H]6C(=O)O)O[C@@H]5C(=O)O)O[C@@H]4C(=O)O)O[C@@H]3C(=O)O)O[C@@H]2C(=O)O)[C@@H](O)[C@@H](O)[C@@H]1O (stereo partly drawn) [M7, beta-D-mannuronate heptasaccharide (heptamannuronate)]
 |  |  | 1200 ± 600 nM | O=C(O)[C@H]1O[C@@H](O[C@H]2[C@H](O)[C@H](O)[C@H](O[C@H]3[C@H](O)[C@H](O)[C@H](O[C@H]4[C@H](O)[C@H](O)[C@H](O[C@H]5[C@H](O)[C@H](O)C(O)O[C@@H]5C(=O)O)O[C@@H]4C(=O)O)O[C@@H]3C(=O)O)O[C@@H]2C(=O)O)[C@@H](O)[C@@H](O)[C@@H]1O (stereo partly drawn) [M5, mannuronate pentasaccharide (beta-D-mannuronate pentasaccharide)]
-3.5 ± 0.3 kcal/mol | 6.4 kcal/mol | -9.9 kcal/mol and -9.9 ± 0.1 kcal/mol |  | O=C(O)[C@H]1O[C@@H](O[C@H]2[C@H](O)[C@H](O)[C@H](O[C@H]3[C@H](O)[C@H](O)[C@H](O[C@H]4[C@H](O)[C@H](O)[C@H](O[C@H]5[C@H](O)[C@H](O)[C@H](O[C@H]6[C@H](O)[C@H](O)C(O)O[C@@H]6C(=O)O)O[C@@H]5C(=O)O)O[C@@H]4C(=O)O)O[C@@H]3C(=O)O)O[C@@H]2C(=O)O)[C@@H](O)[C@@H](O)[C@@H]1O (some centres unmarked) [M6]
 |  |  | 60 ± 60 nM | O=C(O)[C@H]1O[C@@H](O[C@H]2[C@H](O)[C@H](O)[C@H](O[C@H]3[C@H](O)[C@H](O)[C@H](O[C@H]4[C@H](O)[C@H](O)[C@H](O[C@H]5[C@H](O)[C@H](O)[C@H](O[C@H]6[C@H](O)[C@H](O)C(O)O[C@@H]6C(=O)O)O[C@@H]5C(=O)O)O[C@@H]4C(=O)O)O[C@@H]3C(=O)O)O[C@@H]2C(=O)O)[C@@H](O)[C@@H](O)[C@@H]1O (stereo partly drawn) [M6, beta-D-mannuronate hexasaccharide (hexamannuronate)]
-4.2 ± 0.8 kcal/mol | 5.2 kcal/mol | -9.3 kcal/mol and -9.3 ± 0.1 kcal/mol |  | O=C(O)[C@H]1O[C@@H](O[C@H]2[C@H](O)[C@H](O)[C@H](O[C@H]3[C@H](O)[C@H](O)[C@H](O[C@H]4[C@H](O)[C@H](O)[C@H](O[C@H]5[C@H](O)[C@H](O)[C@H](O[C@H]6[C@H](O)[C@H](O)[C@H](O[C@H]7[C@H](O)[C@H](O)C(O)O[C@@H]7C(=O)O)O[C@@H]6C(=O)O)O[C@@H]5C(=O)O)O[C@@H]4C(=O)O)O[C@@H]3C(=O)O)O[C@@H]2C(=O)O)[C@@H](O)[C@@H](O)[C@@H]1O (some centres unmarked) [M7]
-8.6 ± 1.2 kcal/mol | -0.6 kcal/mol | -8.1 kcal/mol and -8.1 ± 0.1 kcal/mol |  | O=C(O)[C@H]1O[C@@H](O[C@H]2[C@H](O)[C@H](O)[C@H](O[C@H]3[C@H](O)[C@H](O)[C@H](O[C@H]4[C@H](O)[C@H](O)[C@H](O[C@H]5[C@H](O)[C@H](O)C(O)O[C@@H]5C(=O)O)O[C@@H]4C(=O)O)O[C@@H]3C(=O)O)O[C@@H]2C(=O)O)[C@@H](O)[C@@H](O)[C@@H]1O (some centres unmarked) [M5, mannuronate pentasaccharide]
